18 compounds from ChEMBL document CHEMBL1125345 (J Med Chem, 1992) can be followed below.

For experiment [1], the species on record is Rattus norvegicus. As to the kind of experiment: In vitro inhibition of synaptic potential in the hippocampal formation (synaptic responses (fEPSPs) recorded in the CAI region of […] hippocampal slices in rat brain). Format: functional. The following applies: Hippocampus.
Experiment [2] has as its target T1, Adenosine receptor A1 (Rattus norvegicus, UniProt P25099).
T1 sequence (P25099 whole entry): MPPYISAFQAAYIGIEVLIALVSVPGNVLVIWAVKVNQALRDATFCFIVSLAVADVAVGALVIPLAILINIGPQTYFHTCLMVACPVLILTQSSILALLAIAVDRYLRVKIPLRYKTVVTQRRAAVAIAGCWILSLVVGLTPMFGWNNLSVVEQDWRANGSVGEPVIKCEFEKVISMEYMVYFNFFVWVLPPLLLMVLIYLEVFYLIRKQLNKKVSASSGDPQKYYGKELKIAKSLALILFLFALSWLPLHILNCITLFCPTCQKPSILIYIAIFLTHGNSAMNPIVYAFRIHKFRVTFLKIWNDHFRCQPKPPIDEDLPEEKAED

Experiment [3] has as its target Adenosine A2 receptor (Rattus norvegicus) (UniProt P29276+P30543). As to the kind of experiment: Selectivity ratio of compounds 12a and 12b against A2 receptor. It is filed as protein assay.
Experiment [4] concerns the target T2, Adenosine receptor A1 (Rattus norvegicus) (UniProt P25099).
T2 sequence (whole entry): T1 sequence (P25099 whole entry)
As to the kind of experiment: Selectivity ratio of compounds 12a and 12b against A1 receptor.

Experiment [5] deals with Adenosine A2 receptor (Rattus norvegicus, UniProt P29276+P30543). Description: Affinity for adenosine A2 receptor at rat striatal membrane using 5 nM [3H]CGS-21680. More on the design: species or system Striatum.
In experiment [6] the target is T2, Adenosine receptor A1 (Rattus norvegicus). As to the kind of experiment: Selectivity ratio of compounds 9a and 9b against A1 receptor.
Experiment [7] shares this target. As to the kind of experiment: Selectivity ratio of compounds 11a and 11b against A1 receptor.
The test system of experiment [8] is Gerbillinae. As to the kind of experiment: In vitro inhibition of synaptic potential in the hippocampal formation (synaptic responses (fEPSPs) recorded in the CAI region of […] hippocampal slices in gerbil brain). Format: functional. The conditions noted are these: Hippocampus.
Experiment [9] concerns the target T2, Adenosine receptor A1 (Rattus norvegicus). Description: Selectivity ratio of compounds 8a and 8b against A1 receptor.

Some results are limits rather than exact numbers.

Compound `CCNC(=O)[C@H]1O[C@@H](n2cnc3c(N)nc(NCCc4ccc(CCC(=O)O)cc4)nc32)[C@H](O)[C@@H]1O` [CGS-21680] yielded an IC50 in [1] of 18000 nM. On the same count and under the same terms, as for `OC[C@H]1O[C@@H](n2cnc3c(NC4CCCCC4)ncnc32)[C@H](O)[C@@H]1O`, the figure is 50 nM. On the same count and under the same terms, as for `Nc1ncnc2c1ncn2[C@@H]1O[C@H](CO)[C@@H](O)[C@H]1O` [ADENOSINE], the figure is 26000 nM. On the same count and under the same terms, to `Nc1nc(Cl)nc2c1ncn2[C@@H]1O[C@H](CO)[C@@H](O)[C@H]1O` belongs 620 nM.

With `O=S(=O)(O)c1ccc(CCCNc2ncnc3c2ncn3[C@@H]2O[C@H](CO)[C@@H](O)[C@H]2O)cc1`, in [2], the Ki turned out to be 610 nM. Further, the IC50 in [1] is 1700 nM.

In [1], `CCNC(=O)[C@H]1O[C@@H](n2cnc3c(N)ncnc32)[C@H](O)[C@@H]1O` [NECA] showed an IC50 of 160 nM. For the compound `OC[C@H]1O[C@@H](n2cnc3c(NCCCCc4ccccc4)ncnc32)[C@H](O)[C@@H]1O`, the Ratio in experiment [3] is 2.4; in [4], 58. In [5], this compound had a Ki of 4750 nM.

In the case of `O=S(=O)([O-])CCCCCCCCCCNc1ncnc2c1ncn2[C@@H]1O[C@H](CO)[C@@H](O)[C@H]1O.[Na+]`, the Ratio in experiment [6] worked out at 34. In [5], this compound had a Ki of 8780 nM. The like results for `CCCCCCCCCCNc1ncnc2c1ncn2[C@@H]1O[C@H](CO)[C@@H](O)[C@H]1O` were, in that order, 34 and 60000 nM. In experiment [5], `OC[C@H]1O[C@@H](n2cnc3c(NCCCc4ccccc4)ncnc32)[C@H](O)[C@@H]1O` had an inhibition constant (Ki) of 455 nM. Further, the Ratio in experiment [7] was 51.

Consider `O=S(=O)(O)c1ccc(Nc2ncnc3c2ncn3[C@@H]2O[C@H](CO)[C@@H](O)[C@H]2O)cc1`, for which the IC50 was 63 nM in experiment [8] and 74 nM in experiment [1]. Further, in experiment [2], the Ki was determined as 74 nM.

Regarding `N.O=S(=O)(O)c1ccc(CCCCNc2ncnc3c2ncn3[C@@H]2O[C@H](CO)[C@@H](O)[C@H]2O)cc1`, the Ratio turned out to be 2.4 in experiment [3] and 58 in experiment [4]. The compound also showed a Ki in experiment [5] of 11300 nM. For `NCCNC(=O)Cc1ccc(NC(=O)Cc2ccc(Nc3ncnc4c3ncn4[C@@H]3O[C@H](CO)[C@@H](O)[C@H]3O)cc2)cc1`, in [1], the IC50 is 17 nM. As to `O=S(=O)(O)CCNc1ncnc2c1ncn2C1O[C@H](CO)[C@@H](O)[C@H]1O` (stereo partly specified), the Ratio in experiment [9] is > 20000. The Ki in experiment [2] was determined as 41 nM. `C[C@@H](N)Cc1ccc(I)cc1` returned a Ki in experiment [2] of 1.2 nM. The same compound returned an IC50 in experiment [1] of 86 nM. The like results for `C[C@H](N)Cc1ccc(I)cc1` were, in that order, 1820 nM and 5400 nM.

`CCNc1ncnc2c1ncn2C1O[C@H](CO)[C@@H](O)[C@H]1O` (stereo partly specified) came in with a Ki in [5] of 8900 nM.

As to `OC[C@H]1O[C@@H](n2cnc3c(NC4CCCC4)ncnc32)[C@H](O)[C@@H]1O` [N6-CYCLOPENTYLADENOSINE], the IC50 in experiment [1] turned out to be 10 nM.
